This is an account of results in US4547503A, “1-Cyclopropyl-6-fluoro-1,4-dihydro-4-oxo-7-[4-(oxo-alkyl)-1-piperazinyl ]quinoline-3-carboxylic acids and their derivatives, and antibacterial agents containing them” (Bayer Aktiengesellschaft, priority 1982, dated 1985).

Holding throughout (test): MIC, agar dilution test; Denley multipoint inoculation procedure
Holding throughout (type): cell-based

One assay deals with E. coli A 261. The conditions noted are these: Escherichia coli, A261, read-out: Minimum inhibitory concentration. From the text:
(§1) In the table below, the minimum inhibitory concentrations (MIC) with a variety of bacteria for some of the compounds according to the invention are given. |Minimum inhibitory concentrations in mcg/ml in the agar dilution test;

The next assay deals with E. coli Neumann. The conditions noted are these: Escherichia coli, read-out: Minimum inhibitory concentration.
Excerpt: as §1

A further assay deals with Klebsiella 57 USA. The conditions noted are these: read-out: Minimum inhibitory concentration.
Excerpt: as §1

Another assay deals with Klebsiella 6179. The following applies: read-out: Minimum inhibitory concentration.
Excerpt: as §1

The test system of another assay is Klebsiella 8085. The following applies: read-out: Minimum inhibitory concentration.
Excerpt: as §1

The subject of a further assay is Proteus morganii 932. The conditions noted are these: Morganella morganii, read-out: Minimum inhibitory concentration.
Excerpt: as §1

A further assay relates to Providencia 12052. The conditions noted are these: read-out: Minimum inhibitory concentration.
Excerpt: as §1

In another assay the test system is Staphylococcus 133. The conditions noted are these: read-out: Minimum inhibitory concentration.
Excerpt: as §1

Another assay relates to Staphylococcus 1746. The conditions noted are these: read-out: Minimum inhibitory concentration.
Excerpt: as §1

The next assay relates to Staphylococcus Fk 422. The conditions noted are these: FK422, read-out: Minimum inhibitory concentration.
Excerpt: as §1

In brackets after ≈: the same amount, converted by molar mass.

As for `O=C(CN1CCN(c2cc3c(cc2F)c(=O)c(C(=O)O)cn3C2CC2)CC1)c1ccccc1` [Example 4], the MIC in the assay on E. coli A 261 was no more than 0.015 mg/L; in the assay on E. coli Neumann, 0.03 mg/L (≈ 0.0667 µM); in the assay with Klebsiella 57 USA, 0.06 mg/L (≈ 0.133 µM); in the assay with Klebsiella 6179, 0.5 mg/L (≈ 1.11 µM); in the assay on Klebsiella 8085, 0.125 mg/L (≈ 0.278 µM); in the assay with Proteus morganii 932, no more than 0.015 mg/L. Also, the MIC was found to be 128 mg/L (≈ 285 µM) with Providencia 12052, 2 mg/L (≈ 4.45 µM) in the assay with Staphylococcus 133, 1 mg/L (≈ 2.22 µM) with Staphylococcus 1746 and 2 mg/L (≈ 4.45 µM) in the assay on Staphylococcus Fk 422.

Regarding `O=C(CN1CCN(c2cc3c(cc2F)c(=O)c(C(=O)O)cn3C2CC2)CC1)c1ccc(Cl)cc1` [Example 9], the MIC is no more than 0.015 mg/L with E. coli A 261; 0.03 mg/L (≈ 0.062 µM) in the assay with E. coli Neumann; 0.5 mg/L (≈ 1.03 µM) in the assay on Klebsiella 57 USA; 1 mg/L (≈ 2.07 µM) in the assay with Klebsiella 6179; 0.125 mg/L (≈ 0.258 µM) with Klebsiella 8085; 0.03 mg/L (≈ 0.062 µM) in the assay on Proteus morganii 932. The MIC in the assay with Providencia 12052 was greater than 128 mg/L; in the assay on Staphylococcus 133, 2 mg/L (≈ 4.13 µM); in the assay with Staphylococcus 1746 it was 2 mg/L (≈ 4.13 µM); in the assay with Staphylococcus Fk 422, 2 mg/L (≈ 4.13 µM).

On to `CC(=O)CN1CCN(c2cc3c(cc2F)c(=O)c(C(=O)O)cn3C2CC2)CC1` [Example 1, 1-cyclopropyl-6-fluoro-1,4-dihydro-4-oxo-7-[4-(2-oxopropyl)-1-piperazinyl]quinoline-3-carboxylic acid], for which the MIC was no more than 0.015 mg/L in the assay with E. coli A 261; 0.06 mg/L (≈ 0.155 µM) with E. coli Neumann; 1 mg/L (≈ 2.58 µM) in the assay with Klebsiella 57 USA; 2 mg/L (≈ 5.16 µM) in the assay on Klebsiella 6179; 0.06 mg/L (≈ 0.155 µM) in the assay with Klebsiella 8085; 0.06 mg/L (≈ 0.155 µM) with Proteus morganii 932. The MIC in the assay with Providencia 12052 worked out at 128 mg/L (≈ 330 µM); in the assay on Staphylococcus 133, 0.25 mg/L (≈ 0.645 µM); with Staphylococcus 1746, 0.25 mg/L (≈ 0.645 µM); in the assay on Staphylococcus Fk 422, 0.25 mg/L (≈ 0.645 µM).

In the case of `O=C(CN1CCN(c2cc3c(cc2F)c(=O)c(C(=O)O)cn3C2CC2)CC1)c1ccc(F)cc1` [Example 8], the MIC was no more than 0.015 mg/L with E. coli A 261; 0.015 mg/L (≈ 0.0321 µM) in the assay with E. coli Neumann; 0.03 mg/L (≈ 0.0642 µM) with Klebsiella 57 USA; 0.25 mg/L (≈ 0.535 µM) in the assay on Klebsiella 6179; 0.03 mg/L (≈ 0.0642 µM) in the assay with Klebsiella 8085; no more than 0.015 mg/L in the assay with Proteus morganii 932. For the same compound, the MIC with Providencia 12052 is 64 mg/L (≈ 137 µM); with Staphylococcus 133, 1 mg/L (≈ 2.14 µM); in the assay with Staphylococcus 1746, 1 mg/L (≈ 2.14 µM); in the assay on Staphylococcus Fk 422 it was 1 mg/L (≈ 2.14 µM).

On to `O=C(CN1CCN(c2cc3c(cc2F)c(=O)c(C(=O)O)cn3C2CC2)CC1)c1ccc(O)cc1O` [Example 5], for which the MIC with Staphylococcus 133, with Staphylococcus 1746 and in the assay on Staphylococcus Fk 422 was 0.25 mg/L (≈ 0.519 µM) throughout.

For `CC(=O)CCN1CCN(c2cc3c(cc2F)c(=O)c(C(=O)O)cn3C2CC2)CC1` [Example 12, 1-cyclopropyl-6-fluoro-1,4-dihydro-4-oxo-7-[4-(3-oxobutyl)-1-piperazinyl]quinoline-3-carboxylic acid], the MIC with E. coli A 261 was no more than 0.015 mg/L; in the assay on E. coli Neumann it was no more than 0.015 mg/L; in the assay with Klebsiella 57 USA, 0.06 mg/L (≈ 0.149 µM); with Klebsiella 6179, 0.25 mg/L (≈ 0.623 µM); in the assay on Klebsiella 8085, no more than 0.015 mg/L; with Proteus morganii 932, no more than 0.015 mg/L. The MIC was 32 mg/L (≈ 79.7 µM) in the assay with Providencia 12052, 0.5 mg/L (≈ 1.25 µM) in the assay with Staphylococcus 133, 0.5 mg/L (≈ 1.25 µM) in the assay with Staphylococcus 1746 and 0.5 mg/L (≈ 1.25 µM) with Staphylococcus Fk 422.
